Data reported in ChEMBL document CHEMBL1129938, “Synthesis and biological evaluation of nonclassical 2,4-diamino-5-methylpyrido[2,3-d]pyrimidines with novel side chain substituents as potential inhibitors of dihydrofolate reductases” (J Med Chem, 1997).

Columns and labels:
Dihydrofolate reductase [1] = target: T1, Dihydrofolate reductase (Rattus norvegicus, UniProt Q920D2)
T1 sequence (Q920D2 whole entry): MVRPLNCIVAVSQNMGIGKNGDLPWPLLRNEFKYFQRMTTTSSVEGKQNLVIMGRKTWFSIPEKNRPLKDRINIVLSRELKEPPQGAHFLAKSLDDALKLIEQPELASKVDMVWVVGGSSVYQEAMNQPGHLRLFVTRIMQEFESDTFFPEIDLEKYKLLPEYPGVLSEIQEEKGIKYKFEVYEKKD
Description: Inhibition of Dihydrofolate Reductase of Rat Liver.

Dihydrofolate reductase [2] = target: T2, Dihydrofolate reductase (Pneumocystis carinii, UniProt P16184)
T2 sequence (P16184 whole entry): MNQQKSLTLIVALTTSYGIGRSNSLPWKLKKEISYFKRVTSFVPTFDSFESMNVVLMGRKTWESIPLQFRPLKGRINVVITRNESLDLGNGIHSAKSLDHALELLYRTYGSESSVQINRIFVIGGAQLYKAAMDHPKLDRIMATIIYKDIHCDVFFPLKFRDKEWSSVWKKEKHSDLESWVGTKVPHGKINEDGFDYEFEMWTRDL
Description: Inhibition of Dihydrofolate Reductase of Pneumocystis carinii.

[3] = target: T3, Bifunctional dihydrofolate reductase-thymidylate synthase (Toxoplasma gondii, UniProt Q07422)
T3 sequence (Q07422 whole entry): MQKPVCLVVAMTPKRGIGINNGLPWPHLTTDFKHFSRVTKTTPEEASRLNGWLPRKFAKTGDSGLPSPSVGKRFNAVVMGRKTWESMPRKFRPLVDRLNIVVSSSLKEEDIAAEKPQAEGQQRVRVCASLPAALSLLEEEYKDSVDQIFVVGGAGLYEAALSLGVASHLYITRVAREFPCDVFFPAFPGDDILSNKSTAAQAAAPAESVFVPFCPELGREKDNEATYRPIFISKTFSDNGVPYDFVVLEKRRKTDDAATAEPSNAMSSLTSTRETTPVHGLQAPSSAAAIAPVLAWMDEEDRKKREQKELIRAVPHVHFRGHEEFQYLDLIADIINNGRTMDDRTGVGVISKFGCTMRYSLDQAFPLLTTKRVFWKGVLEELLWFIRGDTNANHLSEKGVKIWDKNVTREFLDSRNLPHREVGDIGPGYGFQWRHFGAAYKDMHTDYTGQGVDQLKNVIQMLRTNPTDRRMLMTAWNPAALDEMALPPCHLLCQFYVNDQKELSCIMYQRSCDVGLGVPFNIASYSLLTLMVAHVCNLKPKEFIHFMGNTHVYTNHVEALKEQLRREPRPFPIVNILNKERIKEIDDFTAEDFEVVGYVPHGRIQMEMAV
Description: Inhibition of Dihydrofolate Reductase of Toxoplasma gondii.

[4] = Partition coefficient (logP); format: physicochemical; details: octanol/water
CHO = experiment: Cell culture inhibition was assessed by measuring incorporation of [3H]uracil into Toxoplasma gondii cells (CHO cell line); format: functional, cell-based; details: Cricetulus griseus
[5] = Selectivity ratio of Toxoplasma gondii cell culture to the T. gondii (tg) Dihydrofolate Reductase; format: functional

| Structure (SMILES) | IC50 (Dihydrofolate reductase [1]) [µM] | IC50 (Dihydrofolate reductase [2]) [µM] | IC50 [3] [µM] | logP [4] | IC50 (CHO) [µM] | Selectivity ratio [5] |
| --- | --- | --- | --- | --- | --- | --- |
| Cc1c(C)c(-n2cccc2)c(C)c(C)c1NCc1cnc2nc(N)nc(N)c2c1C | 0.17 | 0.62 | 0.075 |  |  |  |
| COc1ccc2c(c1)CCN2Cc1cnc2nc(N)nc(N)c2c1C | 0.17 | 0.25 | 0.057 |  |  |  |
| COc1cc2c(cc1OC)CN(Cc1cnc3nc(N)nc(N)c3c1C)CC2 | 0.13 | 0.85 | 0.11 |  |  |  |
| COc1cc(NCc2cnc3nc(N)nc(N)c3c2C)c(-n2cccc2)cc1OC | 3.5 |  | 0.6 |  |  |  |
| COc1ccc(-c2ccccc2)cc1NCc1cnc2nc(N)nc(N)c2c1C | 0.44 |  | 0.068 | 4.77 |  |  |
| COc1ccc2c(ccn2Cc2cnc3nc(N)nc(N)c3c2C)c1 | 0.47 | 0.57 | 0.077 | 3.07 | 1 | 13 |
| COc1cccc2c1CCN2Cc1cnc2nc(N)nc(N)c2c1C | 0.15 | 0.29 | 0.048 |  |  |  |
| COc1cc2c(cc1OC)N(Cc1cnc3nc(N)nc(N)c3c1C)CC2 | 0.23 | 0.41 | 0.049 | 2.33 | 25.1 | 512 |
| COc1cc(-n2cccc2)c(OC)cc1NCc1cnc2nc(N)nc(N)c2c1C | 0.23 | 0.35 | 0.033 |  |  |  |
